Assay results: US20240165042A1, “COMPOSITION FOR CONTROLLED RELEASE OF PHYSIOLOGICALLY ACTIVE SUBSTANCES AND PROCESS FOR ITS PREPARATION” (BALCHEM ITALIA S.R.L., priority 2017, published 2024)

Assays:
Format in all cases: in vitro ADME
[1] = Post-ruminal digestibility in vitro (pharmaceutical dissolver, Boisen Test: gastric pH 2.0 + pepsin, intestinal pH 6.8 + pancreatine, then lipase and bile extract)
Description: (§1) The experimental conditions of use were 39° C., 15 rpm, 8 hours presence in the solution with “ruminal” pH of about 6.8. • Daisy^II ANKOM: commercially available laboratory artificial rumen, for determining the degree of ruminal bypass. The experimental conditions of use were 39° C., 8 hours presence in ruminal conditions, buffer solution at “ruminal” pH with insertion of “ruminal inoculum” and re-creation of ruminal anaerobiosis according to a university procedure known to those skilled in the art. The pH normally tested in the quality control phase is 6.8. Pharmaceutical dissolver for determining the degree of post-ruminal digestibility. The experimental conditions of use followed the procedure known to experts in the field as “Boisen Test” and, in particular, they were: • 39° C., 30 rpm, 2 h, buffer solution with “gastric” pH (2.0)+pepsin inoculum. • 39 °C, 30 rpm, 4 h, buffer solution with “intestinal” pH (6.8)+pancreatine inoculum. • 39° C., 30 rpm, 18 h, buffer solution with “intestinal” pH (6.8)+lipase and bile extract inoculum.
(§2) Then the microgranules were subjected to an evaluation of the degree of ruminal by-pass, post-ruminal digestibility and total bioavailability using the Boisen method.

[2] = Total bioavailability in vitro (combination of ruminal by-pass and post-ruminal digestibility)
Description: as §1, §2

[3] = Degree of ruminal by-pass in vitro (pharmaceutical dissolver / Daisy II ANKOM artificial rumen, 39° C., 8 hours, ruminal pH about 6.8)
Description: In the context of the present invention, the term “ruminal by-pass” indicates the percentage amount by weight of substance reaching the animal post-ruminal area, namely the stomach and the intestine, with respect to the total amount by weight of the orally administered substance.
The experimental conditions of use were 39° C., 15 rpm, 8 hours presence in the solution with “ruminal” pH of about 6.8. • Daisy^II ANKOM: commercially available laboratory artificial rumen, for determining the degree of ruminal bypass. The experimental conditions of use were 39° C., 8 hours presence in ruminal conditions, buffer solution at “ruminal” pH with insertion of “ruminal inoculum” and re-creation of ruminal anaerobiosis according to a university procedure known to those skilled in the art. […] Pharmaceutical dissolver for determining the degree of post-ruminal digestibility. The experimental conditions of use followed the procedure known to experts in the field as “Boisen Test” and, in particular, they were: • 39° C., 30 rpm, 2 h, buffer solution with “gastric” pH (2.0)+pepsin inoculum. • 39 °C, 30 rpm, 4 h, buffer solution with “intestinal” pH (6.8)+pancreatine inoculum. • 39° C., 30 rpm, 18 h, buffer solution with “intestinal” pH (6.8)+lipase and bile extract inoculum.
as §2

[4] = theoretical administration of 100 g of choline chloride
[5] = theoretical administration of 200 g of product

C[N+](C)(C)CCO.[Cl-] [Product A, choline chloride]
Choline Chloride in faeces [1, 4]: 0 g | Choline Chloride in faeces [1, 5]: 0 g | Bioavailable Choline Chloride [2, 4]: 0 g | Bioavailable Choline Chloride [2, 5]: 0 g | Bypassed Choline Chloride [3, 4]: 0 g | Choline Chloride lost in the rumen in 8 h [3, 4]: 101 g | Bypassed Choline Chloride [3, 5]: 0 g | Choline Chloride lost in the rumen in 8 h [3, 5]: 198 g
